Reference: patent US12319708B2, “Agonists of peroxisome proliferator-activated receptor alpha (PPARα) and methods of use” (The Board of Regents of the University of Oklahoma, priority 2018, dated 2025)
pEC50: −log10 of the molar value. Converted amounts (≈) assume the structure as drawn. Read-outs that look alike come from different tables or passages of the source.

What was measured:
[1] = Solubilities of various compounds; format: physicochemical
[2] = biological target: T1, hPPARδ (Homo sapiens, UniProt Q03181); test: PPARδ luciferase reporter cell-line assay (Indigo Biosciences); format: cell-based
T1 construct: expressed in transfected cells
T1 sequence (Q03181 1-441): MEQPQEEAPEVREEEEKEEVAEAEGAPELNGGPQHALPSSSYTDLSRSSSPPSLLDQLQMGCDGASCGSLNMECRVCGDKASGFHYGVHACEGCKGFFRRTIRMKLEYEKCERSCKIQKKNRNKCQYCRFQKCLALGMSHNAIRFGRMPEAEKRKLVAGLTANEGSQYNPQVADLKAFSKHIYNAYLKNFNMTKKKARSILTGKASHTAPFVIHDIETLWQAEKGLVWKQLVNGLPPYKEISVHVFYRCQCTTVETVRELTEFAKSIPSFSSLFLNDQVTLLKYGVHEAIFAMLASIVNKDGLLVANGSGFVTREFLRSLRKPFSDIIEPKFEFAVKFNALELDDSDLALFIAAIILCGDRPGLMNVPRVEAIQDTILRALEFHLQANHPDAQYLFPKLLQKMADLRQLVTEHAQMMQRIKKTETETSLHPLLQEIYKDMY
Method: (§1) Luciferase assays were conducted on isogenic cell-lines engineered to overexpress either PPARδ or PPARγ with expression of the requisite luciferase reporter gene dependent upon exogenous activation of each isoform.

[3] = biological target: T2, hPPARγ (Homo sapiens, UniProt P37231); test: PPARγ luciferase reporter cell-line assay (Indigo Biosciences); format: cell-based
T2 construct: expressed in transfected cells
T2 sequence (P37231 1-505): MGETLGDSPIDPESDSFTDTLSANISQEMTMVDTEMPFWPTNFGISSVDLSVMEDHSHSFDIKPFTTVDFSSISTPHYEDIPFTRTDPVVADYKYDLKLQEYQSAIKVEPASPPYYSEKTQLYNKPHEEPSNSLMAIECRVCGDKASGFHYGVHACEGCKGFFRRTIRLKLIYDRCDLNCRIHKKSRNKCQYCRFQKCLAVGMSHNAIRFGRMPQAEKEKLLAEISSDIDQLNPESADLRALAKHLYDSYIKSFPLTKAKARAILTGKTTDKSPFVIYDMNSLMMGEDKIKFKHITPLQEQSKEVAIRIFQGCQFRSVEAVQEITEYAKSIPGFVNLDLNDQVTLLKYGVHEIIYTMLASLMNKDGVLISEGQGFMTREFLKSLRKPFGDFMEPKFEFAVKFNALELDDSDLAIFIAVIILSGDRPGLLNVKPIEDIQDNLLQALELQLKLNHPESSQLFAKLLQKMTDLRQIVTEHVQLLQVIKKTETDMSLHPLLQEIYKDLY
Method: as §1

[4] = tested on: PPARα expression in 661W cells; test: Western blot analysis of PPARα expression in 661W cells; format: cell-based, mouse; conditions: 24 h, 10, 50 and 100 μM
Method: (§2) To further confirm that this 4-benzyloxy-benzylamino chemotype acts as a PPARα agonist, we evaluated compound 10 in various biochemical assays. […] Compound 10 was also evaluated in an in vitro wound healing assay utilizing human retinal capillary endothelial cells (HRCEC).

[5] = tested on: PPARα target genes (Acadm, Cpt1a, Fabp3, Slc25a20) in 661W cells; test: RT-PCR of PPARα target genes in 661W cells; format: cell-based, mouse; conditions: 24 h
Method: as §2

[6] = tested on: retinal vascular leakage in diabetic rats; test: STZ-rat model of diabetic retinopathy, retinal permeability; format: in vivo
Method: 7-8 week-old male Brown Norway rats were injected with streptozotocin (STZ, 55 mg/kg).

[7] = tested on: liver phenotype of STZ diabetic rats; test: STZ-rat model, liver phenotype and toxicity; format: in vivo
Method: 7-8 week-old male Brown Norway rats were injected with streptozotocin (STZ, 55 mg/kg). Two weeks after STZ injections, daily treatment (i.p. injection) with ASD091 or FenoFA commenced and lasted for 26-28 days. ≠P<0.05 (vs. FenoFA), *P<0.05 (vs. STZ-DMSO).

[8] = biological target: T3, hPPARα (Homo sapiens, UniProt Q07869); test: PPARα luciferase cell reporter assay (Indigo Biosciences); format: cell-based; conditions: for ratio of agonism compared to GW590735 (value in parentheses): hPPARα luciferase reporter cell-line; for PPAR isoform selectivity profile: hPPARα vs hPPARδ and hPPARγ luciferase cell-lines; for dose-dependent PPARα agonism in cell-based luciferase reporter assay: FIGS. 4 and 7
T3 sequence (Q07869 1-468): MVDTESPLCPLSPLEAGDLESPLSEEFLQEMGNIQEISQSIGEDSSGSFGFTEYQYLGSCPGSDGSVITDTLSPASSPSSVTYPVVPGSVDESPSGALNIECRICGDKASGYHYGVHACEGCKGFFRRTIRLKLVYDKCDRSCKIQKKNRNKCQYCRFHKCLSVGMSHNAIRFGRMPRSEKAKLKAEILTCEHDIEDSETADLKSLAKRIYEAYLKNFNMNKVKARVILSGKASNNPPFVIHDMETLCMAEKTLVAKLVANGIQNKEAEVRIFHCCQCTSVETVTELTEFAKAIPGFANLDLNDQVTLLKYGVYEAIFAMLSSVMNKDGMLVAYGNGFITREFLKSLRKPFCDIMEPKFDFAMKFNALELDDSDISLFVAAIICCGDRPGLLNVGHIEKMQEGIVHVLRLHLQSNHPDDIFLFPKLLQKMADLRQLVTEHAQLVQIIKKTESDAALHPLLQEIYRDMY
Description: With the focused subset of analogs in-hand, our efforts shifted to the evaluation of these derivatives for PPARα agonism. Preliminary evaluation utilized a commercially available PPARα luciferase cell reporter assay (Indigo Biosciences). The cell-line employed is engineered to constitutively express high-levels of hPPARα. Upon interaction with an agonist, hPPARα translocates to the nucleus, binds to the PPRE, and upregulates gene transcription, including the inserted luciferase gene. Luciferase activity is detected indirectly through quantification of oxyluciferin production.

[9] = PBS, pH 7.4, aqueous buffer, read-out: PBS Solubility pH 7.4
[10] = water, H2O, read-out: H2O Solubility
[11] = Table 6, cellular luciferase activity, read-out: δ EC50
[12] = luciferase reporter cell-line, triplicate, single experiment, read-out: hPPARδ EC50
[13] = Table 6, cellular luciferase activity, read-out: γ EC50
[14] = luciferase reporter cell-line, triplicate, single experiment, read-out: hPPARγ EC50
[15] = STZ diabetic Brown Norway rats, daily i.p. injection 26-28 days
[16] = inferred from efficacy after systemic administration
[17] = structure IIa compounds (Table 6)
[18] = Table 6, cellular luciferase activity, read-out: α EC50
[19] = luciferase reporter cell-line, triplicate, single experiment, read-out: hPPARα EC50
[20] = structure IIb compounds (Table 8)

Q: For `Cc1cc(CNc2cccc(C(=O)OCOP(=O)(O)O)c2)ccc1OCc1ccc(F)cc1` [ZH-2021-164], which solubility [1, 9] is on record?
A: Its solubility is 316 µM (≈ 150 µg/mL).

Q: What about the solubility [1, 10] of the same molecule?
A: Its solubility is 284 µM (≈ 135 µg/mL).

Q: Which results are given for `Cc1cc(CNc2cccc(C(=O)OCOP(=O)([O-])O)c2)ccc1OCc1ccc(F)cc1.[Na+]` [ZH-2021-162]?
A: solubility [1, 9]: 292 µM; solubility [1, 10]: 318 µM

Q: Which results are given for `COc1ccc(COc2ccc(CNc3cccc(C(=O)O)c3)cc2)cc1` [Compound 91]?
A: pEC50 [2, 11]: < 4.00; pEC50 [2, 12]: < 4.00; pEC50 [3, 13]: < 4.00; pEC50 [3, 14]: < 4.00; expression of PPARα (Western blot, densitometry) [4]: induced the expression of PPARα in a dose-dependent manner; expression of PPARα target genes (Acadm, Cpt1a, Fabp3, Slc25a20) [5]: induces the expression of various PPARα target genes; retinal vascular leakage [6, 15]: reduces retinal vascular leakage in diabetic rats; bioavailability [6, 16]: is bioavailable; blood-ocular barrier crossing [6, 16]: crosses blood-ocular barrier and reaches the retina; signs of hepatomegaly [7, 15]: seems to lack signs of hepatomegaly; observable toxicity ([7]; daily injection for one-month): no observable toxicity

Q: Which results are given for `CC(C)(Oc1ccc(C(=O)c2ccc(Cl)cc2)cc1)C(=O)O` [Fenofibric acid, fenofibric acid, reference compound]?
A: solubility [1, 9]: 278 µM (≈ 88.6 µg/mL); solubility [1, 10]: 93 µM (≈ 29.6 µg/mL)

Q: With `COc1ccc(COc2ccc(CNc3cccc(OC(C)(C)C(=O)O)c3)c(OCc3ccc(OC)cc3)c2)cc1` [Compound 115] as the molecule, how does the “Fold (5 μM): fold increase in luciferase compared to DMSO negative control” value (shortened to “Fold (5 μM): fold increase in luciferase”) [8, 17] read?
A: The value was 1 fold.

Q: What about the “Fold (50 μM): fold increase in luciferase compared to DMSO negative control” value (“Fold (50 μM): fold increase” below) [8, 17] of the same molecule?
A: Its value is 41 fold.

Q: And the “improvement in potency on adding third B-ring substituent” value ([8]; 28 compared with 22)?
A: The value was 10 fold.

Q: What about the pEC50 [8, 18] of the same molecule?
A: The pEC50 was 5.68.

Q: What about the “ratio of agonism compared to GW590735 (value in parentheses)” value [8] of the same molecule?
A: The value was 1.4.

Q: What about the “PPAR isoform selectivity profile” value [8] of the same molecule?
A: Its value is “pan-agonist profile was maintained”.

Q: What about the pEC50 [8, 19] of the same molecule?
A: Its pEC50 is 5.68.

Q: What about the pEC50 [2, 11] of the same molecule?
A: Its pEC50 is 5.25.

Q: And the pEC50 [2, 12]?
A: Its pEC50 is 5.05.

Q: And the pEC50 [3, 13]?
A: Its pEC50 is 5.05.

Q: And the pEC50 [3, 14]?
A: The pEC50 was 5.25.

Q: For `COc1ccc(COc2ccc(CNc3cccc(C(=O)O)c3)c(OCc3ccc(OC)cc3)c2)cc1` [Compound 92], which “Fold (5 μM): fold increase in luciferase” value [8, 17] is on record?
A: Its value is 8 fold.

Q: And the “Fold (50 μM): fold increase” value [8, 17]?
A: Its value is 21 fold.

Q: And the pEC50 [8, 18]?
A: Its pEC50 is 5.29.

Q: And the “ratio of agonism compared to GW590735 (value in parentheses)” value [8]?
A: The value was 1.1.

Q: What about the “PPAR isoform selectivity profile” value [8] of the same molecule?
A: Its value is “maintains the selectivity”.

Q: And the pEC50 [8, 19]?
A: The pEC50 was 5.29.

Q: And the pEC50 [2, 11]?
A: The pEC50 was under 4.00.

Q: And the pEC50 [2, 12]?
A: Its pEC50 is under 4.00.

Q: What about the pEC50 [3, 13] of the same molecule?
A: Its pEC50 is under 4.00.

Q: What about the pEC50 [3, 14] of the same molecule?
A: The pEC50 was under 4.00.

Q: Which “dose-dependent PPARα agonism in cell-based luciferase reporter assay” value [8] does the source give for `Cc1cc(CNc2cccc(C(=O)O)c2)ccc1OCc1ccc(F)cc1` [Compound 190] here?
A: The value was “exhibits dose-dependent activity”.

Q: What about the “dose-dependent PPARα agonism in cell-based luciferase reporter assay” value ([8]; listed as A190) of the same molecule?
A: The value was “dose-dependent agonism of PPARα”.

Q: And the pEC50 [8, 18]?
A: The pEC50 was 7.52.

Q: And the pEC50 ([8]; text b235, read-out: EC50 (PPARα))?
A: The pEC50 was 7.43.

Q: And the pEC50 [2, 11]?
A: Its pEC50 is under 4.00.

Q: And the pEC50 [3, 13]?
A: Its pEC50 is under 4.00.

Q: With `COc1ccc(COc2ccc(CNc3cccc(OC(C)(C)C(=O)O)c3)cc2)cc1` [Compound 114] as the molecule, how does the pEC50 [2, 11] read?
A: Its pEC50 is 4.74.

Q: And the pEC50 [2, 12]?
A: Its pEC50 is 4.41.

Q: What about the pEC50 [3, 13] of the same molecule?
A: The pEC50 was 4.41.

Q: And the pEC50 [3, 14]?
A: The pEC50 was 4.74.

Q: For `COc1ccc(CCOc2ccc(CCNc3cccc(C(=O)O)c3)cc2)cc1` [Compound 187], which “Fold (5 μM): fold increase in luciferase” value [8, 17] is on record?
A: The value was 1 fold.

Q: What about the “Fold (50 μM): fold increase” value [8, 17] of the same molecule?
A: Its value is 0 fold.

Q: For `CC(C)(Oc1ccc(NCc2ccc(OCc3ccc(F)cc3)cc2)cc1)C(=O)O` [Compound 182], which “Fold (5 μM): fold increase in luciferase” value [8, 20] is on record?
A: Its value is 40 fold.

Q: And the “Fold (50 μM): fold increase” value [8, 20]?
A: The value was 74 fold.

Q: With `O=C(O)c1cccc(NCCc2ccc(OCCc3ccccc3)cc2)c1` [Compound 133] as the molecule, how does the “Fold (5 μM): fold increase in luciferase” value [8, 17] read?
A: The value was 1 fold.

Q: And the “Fold (50 μM): fold increase” value [8, 17]?
A: Its value is 0 fold.
